From PMC8778445, “HPLC-MS Profiling, Antioxidant, Antimicrobial, Antidiabetic, and Cytotoxicity Activities of Arthrocnemum indicum (Willd.) Moq. Extracts” (Plants, 2022)

Target: T1, Intestinal Alpha-glucosidase type I (α-glucosidase)
T1 construct: gene MAL12; commercial enzyme (Sigma-Aldrich), no catalogue number
Experiment: alpha-glucosidase inhibition assay
Type: biochemical
Conditions: positive control; 4-nitrophenyl β-d-glucopyranoside listed among reagents (beta anomer as printed); pH, temperature not given
Source text: alpha-glucosidase inhibition assay on Intestinal Alpha-glucosidase type I (α-glucosidase)

C[C@H]1O[C@H](O[C@H]2[C@H](O)[C@@H](O)[C@@H](O[C@H]3[C@H](O)[C@@H](O)C(O)O[C@@H]3CO)O[C@@H]2CO)[C@H](O)[C@@H](O)[C@@H]1N[C@H]1C=C(CO)[C@@H](O)[C@H](O)[C@H]1O (stereo partly shown) [acarbose]
α-Glucosidase (IC50 mg/mL): 1.12 ± 0.08 mg/mL
